Test results taken from US12637454B2, “Heterocyclic monoacylglycerol lipase (MAGL) inhibitors” (Hoffmann-La Roche Inc., priority 2019, dated 2026).

These compounds were tested against T1, MAGL (Homo sapiens, UniProt Q99685) (assay: 2-AG assay (MAGL inhibitory activity, hydrolysis of 2-arachidonoylglycerol followed by mass spectrometry)). Settings: 50 pM MAGL, 8 μM 2-arachidonoylglycerol, 15 min preincubation, 30 min incubation at RT.
T1 sequence (Q99685 1-303): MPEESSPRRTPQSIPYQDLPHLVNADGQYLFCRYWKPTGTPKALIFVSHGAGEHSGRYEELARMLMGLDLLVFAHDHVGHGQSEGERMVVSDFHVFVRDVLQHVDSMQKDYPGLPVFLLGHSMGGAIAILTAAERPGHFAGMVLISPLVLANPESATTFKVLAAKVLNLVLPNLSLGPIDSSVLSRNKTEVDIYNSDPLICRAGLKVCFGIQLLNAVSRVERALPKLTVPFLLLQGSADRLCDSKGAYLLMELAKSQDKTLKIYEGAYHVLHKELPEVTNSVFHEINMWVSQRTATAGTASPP
Type: biochemical
Experimental: Compounds were profiled for MAGL inhibitory activity by determining the enzymatic activity by following the hydrolysis of the natural substrate 2-arachidonoylglycerol (2-AG) resulting in arachidonic acid, which can be followed by mass spectrometry. This assay is hereinafter abbreviated “2-AG assay”.
The 2-AG assay was carried out in 384 well assay plates (PP, Greiner Cat #784201) in a total volume of 20 μL. Compound dilutions were made in 100% DMSO (VWR Chemicals 23500.297) in a polypropylene plate in 3-fold dilution steps to give a final concentration range in the assay from 12.5 μM to 0.8 pM. 0.25 μL compound dilutions (100% DMSO) were added to 9 μL MAGL in assay buffer (50 mM TRIS (GIBCO, 15567-027), 1 mM EDTA (Fluka, 03690-100 mL), 0.01% (v/v) Tween. After shaking, the plate was incubated for 15 min at RT. To start the reaction, 10 μL 2-arachidonoylglycerol in assay buffer was added. The final concentrations in the assay was 50 pM MAGL and 8 μM 2-arachidonoylglyerol. After shaking and 30 min incubation at RT, the reaction was quenched by the addition of […] of ACN containing 4 μM of d8-arachidonic acid. The amount of arachidonic acid was traced by an online SPE system (Agilent Rapidfire) coupled to a triple quadrupole mass spectrometer (Agilent 6460). A C18 SPE cartridge (G9205A) was used in an ACN/water liquid setup. The mass spectrometer was operated in negative electrospray mode following the mass transitions 303.1→259.1 for arachidonic acid and 311.1→267.0 for d8-arachidonic acid. The activity of the compounds was calculated based on the ratio of intensities [arachidonic acid/d8-arachidonic acid].

Row | Compound | IC50 [nM]
1 | O=C(c1cccc(N2CC(O)C2)c1Cl)N1CCN2C[C@@](O)(c3ccc(F)c(Cl)c3)CC[C@@H]2C1 [Example 40] | 6.91
2 | O=C(c1cccc(F)c1Cl)N1CCN2C[C@@](O)(c3ccc(C(F)(F)F)cn3)CC[C@@H]2C1 [Example 41, [(7R,9aR)-7-hydroxy-7-[5-(trifluoromethyl)pyridin-2-yl]-3,4,6,8,9,9a-hexahydro-1H-pyrido[1,2-a]pyrazin-2-yl]-(2-chloro-3-fluorophenyl)methanone] | 392
3 | O=C(c1cccc(F)c1Cl)N1CCN2C[C@](O)(c3ccc(C(F)(F)F)cn3)CC[C@H]2C1 [Example 42, [(7S,9aS)-7-hydroxy-7-[5-(trifluoromethyl)pyridin-2-yl]-3,4,6,8,9,9a-hexahydro-1H-pyrido[1,2-a]pyrazin-2-yl]-(2-chloro-3-fluorophenyl)methanone] | 4820
4 | O=C(c1cccc(N2CC[C@H](O)C2)c1Cl)N1CCN2C[C@@](O)(c3ccc(F)c(Cl)c3)CC[C@@H]2C1 [Example 43, [(7S,9aR)-7-(3-chloro-4-fluorophenyl)-7-hydroxy-3,4,6,8,9,9a-hexahydro-1H-pyrido[1,2-a]pyrazin-2-yl]-[2-chloro-3-[(3S)-3-hydroxypyrrolidin-1-yl]phenyl]methanone] | 20.7
5 | O=C(c1cccc(N2CC[C@@H](O)C2)c1Cl)N1CCN2C[C@@](O)(c3ccc(F)c(Cl)c3)CC[C@@H]2C1 [Example 44, [(7S,9aR)-7-(3-chloro-4-fluorophenyl)-7-hydroxy-3,4,6,8,9,9a-hexahydro-1H-pyrido[1,2-a]pyrazin-2-yl]-[2-chloro-3-[(3R)-3-hydroxypyrrolidin-1-yl]phenyl]methanone] | 15.4
6 | O=C(c1cccc(N2CC[C@@H](O)C2)c1Cl)N1CCN2C[C@@](O)(c3ccc(Cl)cc3)CC[C@@H]2C1 [Example 45, [(7S,9aR)-7-(4-chlorophenyl)-7-hydroxy-3,4,6,8,9,9a-hexahydro-1H-pyrido[1,2-a]pyrazin-2-yl]-[2-chloro-3-[(3R)-3-hydroxypyrrolidin-1-yl]phenyl]methanone] | 66.8
7 | CC1(O)CN(c2cccc(C(=O)N3CCN4C[C@@](O)(c5ccc(Cl)cc5)CC[C@@H]4C3)c2Cl)C1 [Example 46, [(7S,9aR)-7-(4-chlorophenyl)-7-hydroxy-3,4,6,8,9,9a-hexahydro-1H-pyrido[1,2-a]pyrazin-2-yl]-[2-chloro-3-(3-hydroxy-3-methylazetidin-1-yl)phenyl]methanone] | 234
8 | O=C(c1cccc(N2CCC[C@H](O)C2)c1Cl)N1CCN2C[C@@](O)(c3ccc(F)c(Cl)c3)CC[C@@H]2C1 [Example 47, [(7S,9aR)-7-(3-chloro-4-fluorophenyl)-7-hydroxy-3,4,6,8,9,9a-hexahydro-1H-pyrido[1,2-a]pyrazin-2-yl]-[2-chloro-3-[(3S)-3-hydroxypiperidin-1-yl]phenyl]methanone] | 41.5
9 | O=C(c1cccc(N2CCC[C@@H](O)C2)c1Cl)N1CCN2C[C@@](O)(c3ccc(F)c(Cl)c3)CC[C@@H]2C1 [Example 48, [(7S,9aR)-7-(3-chloro-4-fluorophenyl)-7-hydroxy-3,4,6,8,9,9a-hexahydro-1H-pyrido[1,2-a]pyrazin-2-yl]-[2-chloro-3-[(3R)-3-hydroxypiperidin-1-yl]phenyl]methanone] | 292
10 | O=C(c1cccc(N2CCC(O)CC2)c1Cl)N1CCN2C[C@@](O)(c3ccc(Cl)cc3)CC[C@@H]2C1 [Example 49, [(7S,9aR)-7-(4-chlorophenyl)-7-hydroxy-3,4,6,8,9,9a-hexahydro-1H-pyrido[1,2-a]pyrazin-2-yl]-[2-chloro-3-(4-hydroxypiperidin-1-yl)phenyl]methanone] | 80.8
11 | O=C(c1cccc(N2C[C@H](O)[C@@H](O)C2)c1Cl)N1CCN2C[C@@](O)(c3ccc(F)c(Cl)c3)CC[C@@H]2C1 [Example 51, [(7S,9aR)-7-(3-chloro-4-fluorophenyl)-7-hydroxy-3,4,6,8,9,9a-hexahydro-1H-pyrido[1,2-a]pyrazin-2-yl]-[2-chloro-3-[(3S,4S)-3,4-dihydroxypyrrolidin-1-yl]phenyl]methanone] | 10.9
12 | O=C(c1cccc(N2CC(F)(CO)C2)c1Cl)N1CCN2C[C@@](O)(c3ccc(F)c(Cl)c3)CC[C@@H]2C1 [Example 52, [(7S,9aR)-7-(3-chloro-4-fluorophenyl)-7-hydroxy-3,4,6,8,9,9a-hexahydro-1H-pyrido[1,2-a]pyrazin-2-yl]-[2-chloro-3-[3-fluoro-3-(hydroxymethyl)azetidin-1-yl]phenyl]methanone] | 84.2
13 | O=C(c1cccc(N2CC(CO)C2)c1Cl)N1CCN2C[C@@](O)(c3ccc(F)c(Cl)c3)CC[C@@H]2C1 [Example 53, [(7S,9aR)-7-(3-chloro-4-fluorophenyl)-7-hydroxy-3,4,6,8,9,9a-hexahydro-1H-pyrido[1,2-a]pyrazin-2-yl]-[2-chloro-3-[3-(hydroxymethyl)azetidin-1-yl]phenyl]methanone] | 79.7

Second part, the compound after the results:

Row | IC50 [nM] | Compound
14 | 3.08 | O=C(c1cccc(-c2cc[nH]n2)c1Cl)N1CCN2C[C@@](O)(c3ccc(F)c(Cl)c3)CC[C@@H]2C1 [Example 54, [(7S,9aR)-7-(3-chloro-4-fluorophenyl)-7-hydroxy-3,4,6,8,9,9a-hexahydro-1H-pyrido[1,2-a]pyrazin-2-yl]-[2-chloro-3-(1H-pyrazol-3-yl)phenyl]methanone]
15 | 9.04 | O=C(c1cccc(-c2cc[nH]n2)c1F)N1CCN2C[C@@](O)(c3ccc(F)c(Cl)c3)CC[C@@H]2C1 [Example 55, [(7S,9aR)-7-(3-chloro-4-fluorophenyl)-7-hydroxy-3,4,6,8,9,9a-hexahydro-1H-pyrido[1,2-a]pyrazin-2-yl]-[2-fluoro-3-(1H-pyrazol-3-yl)phenyl]methanone]
16 | 37.5 | O=C(c1cccc(-c2ccsn2)c1F)N1CCN2C[C@@](O)(c3ccc(Cl)cc3)CC[C@@H]2C1 [Example 56, [(7S,9aR)-7-(4-chlorophenyl)-7-hydroxy-3,4,6,8,9,9a-hexahydro-1H-pyrido[1,2-a]pyrazin-2-yl]-[2-fluoro-3-(1,2-thiazol-3-yl)phenyl]methanone]
17 | 0.74 | O=C(c1cccc(-c2[nH]ncc2F)c1Cl)N1CCN2C[C@@](O)(c3ccc(F)c(Cl)c3)CC[C@@H]2C1 [Example 57, [(7S,9aR)-7-(3-chloro-4-fluorophenyl)-7-hydroxy-3,4,6,8,9,9a-hexahydro-1H-pyrido[1,2-a]pyrazin-2-yl]-[2-chloro-3-(4-fluoro-1H-pyrazol-5-yl)phenyl]methanone]
18 | 14.2 | O=C(c1cccc(-c2ncsn2)c1Cl)N1CCN2C[C@@](O)(c3ccc(F)c(Cl)c3)CC[C@@H]2C1 [Example 58, [(7S,9aR)-7-(3-chloro-4-fluorophenyl)-7-hydroxy-3,4,6,8,9,9a-hexahydro-1H-pyrido[1,2-a]pyrazin-2-yl]-[2-chloro-3-(1,2,4-thiadiazol-3-yl)phenyl]methanone]
19 | 11.2 | COc1cccc(C(=O)N2CCN3C[C@@](O)(c4ccc(F)c(F)c4)CC[C@@H]3C2)c1Cl [Example 59, [(7S,9aR)-7-(3,4-difluorophenyl)-7-hydroxy-3,4,6,8,9,9a-hexahydro-1H-pyrido[1,2-a]pyrazin-2-yl]-(2-chloro-3-methoxyphenyl)methanone]
20 | 118 | COc1cccc(C(=O)N2CCN3C[C@](O)(c4ccc(F)c(F)c4)CC[C@H]3C2)c1Cl [Example 60, [(7R,9aS)-7-(3,4-difluorophenyl)-7-hydroxy-3,4,6,8,9,9a-hexahydro-1H-pyrido[1,2-a]pyrazin-2-yl]-(2-chloro-3-methoxyphenyl)methanone]
21 | 14 | O=C(c1cccc(-c2ccn[nH]2)c1F)N1CCN2C[C@@](O)(c3ccc(F)c(F)c3)CC[C@@H]2C1 [Example 61, [(7S,9aR)-7-(3,4-difluorophenyl)-7-hydroxy-3,4,6,8,9,9a-hexahydro-1H-pyrido[1,2-a]pyrazin-2-yl]-[2-fluoro-3-(1H-pyrazol-5-yl)phenyl]methanone]
22 | 20.5 | O=C(c1cccc(-c2[nH]ncc2F)c1F)N1CCN2C[C@@](O)(c3ccc(F)c(F)c3)CC[C@@H]2C1 [Example 62, [(7S,9aR)-7-(3,4-difluorophenyl)-7-hydroxy-3,4,6,8,9,9a-hexahydro-1H-pyrido[1,2-a]pyrazin-2-yl]-[2-fluoro-3-(4-fluoro-1H-pyrazol-5-yl)phenyl]methanone]
23 | 39.4 | O=C(c1cccc(N2CC(O)C2)c1Cl)N1CCN2C[C@@](O)(c3ccc(F)c(F)c3)CC[C@@H]2C1 [Example 63, [(7S,9aR)-7-(3,4-difluorophenyl)-7-hydroxy-3,4,6,8,9,9a-hexahydro-1H-pyrido[1,2-a]pyrazin-2-yl]-[2-chloro-3-(3-hydroxyazetidin-1-yl)phenyl]methanone]
